Results as given in paper PMC8297402, “Trifluoromethyl-substituted 3,5-bis(arylidene)-4-piperidones as potential anti-hepatoma and anti-inflammation agents by inhibiting NF-кB activation” (Journal of Enzyme Inhibition and Medicinal Chemistry, 2021).

Legend:
in vitro = format: cell-based; settings: human
Experimental: aThe letters SI refer to the selectivity index which is the quotient of the IC50 values for normal and […]
Preliminary safety evaluation of BAP 16
Toxicity test on normal non-liver cell lines: To validate the safety of BAP 16, one Human embryonic lung fibroblasts cell line (HFL1), one human embryonic kidney cell line (HEK293), and one human normal lung bronchial epithelial cell line (BEAS-2B) were tested using a modified MTT assay (Dojindo Laboratories, Tokyo, Japan). F12K medium containing 10% FBS was used for culturing the HFL1 cell line, DMEM medium containing 10% FBS and 1.5 g/L sodium bicarbonate was used for culturing the HEK293 cell line, and the BEAS-2B special medium was used for culturing BEAS-2B cell line. The remaining operations were consistent with the previous […]
human normal non-heptical cell lines (HFL1, HEK293 and BEAS-2B), which was similar to that of human normal heptical cell lines.
Table S2. Toxicity test of BAP 16 on normal non-heptical cell lines. […]
(§1) Acute Toxicity Studies: Animal experiments were reviewed and approved by the Binzhou Medical University Experimental Animal Committee. The acute toxicity study was investigated on the six-week-old female ICR mice (n = 30) weighing 18-22 grams (Jinan Pengyue Experimental Animal Breeding Co., Ltd.). Briefly, mice were randomly divided into three groups (n = 10/group) and administrated the BAP 16 or solvent. The three groups of mice were treated with intragastric administration of 300 mg/kg, 600 mg/kg of BAP 16 and vehicle (saline containing 0.5% CMC-Na) each day. The body weight of mice was recorded every day, and the toxicity and death of mice were monitored daily for up to day 14. On day 14, the surviving animals were dissected to observe whether the internal organs had visible tissue changes, and then the livers were taken for formaldehyde fixation, dehydration, embedding, sectioning, and HE staining. The cell images were taken using a light microscopy (Olympus, Tokyo, Japan).

p-JNK = experiment: Western blot, LPS-induced phosphorylation of JNK in RAW264.7 cells; format: cell-based, mouse; settings: RAW264.7, 1.0, 2.0, 4.0 μM, LPS 1.0 μg/mL 30 min
Excerpt: (§2) Primary antibodies (anti-Bax, Abcam, ab32503; anti-Bcl-2, Abcam, ab194583; anti-Cleaved caspase-3, Abcam, ab2302; anti-p65, Cell Signalling Technology, 8242S; anti-p-p65, Cell Signalling Technology, 3033S; anti-IκBα, Cell Signalling Technoligy, 4812S; anti-p-IκBα, Cell Signalling Technology, 2859S; anti-p38, Cell Signalling Technology, 8690S; anti-p-p38, Cell Signalling Technology, 4511S; anti-JNK, Cell Signalling Technology, 9258 T; anti-p-JNK, Santa Cruz Biotechnology, sc-6254; anti-GAPDH, Abcam, ab181602), and goat anti-rabbit IgG/HRP secondary antibodies (Cell Signalling Technology, 98164 s) were purchased and used according to the manufacturer’s instructions. HepG2 cell lines were incubated with different doses of BAP 16 (1.0, 2.0, 4.0 μM) for 24 h (Bax, Cleaved caspase-3, Bcl-2). RAW264.7 cells were incubated with BAP 16 for 1 h, then treated with LPS (1.0 μg/mL) for 30 min. Afterward cell extraction was performed and extracts were used for Western blot analysis. Next, 30 μg protein of cell lysates were separated by 12% SDS-PAGE gel. The proteins were then transferred onto nitrocellulose membranes. […] By using Quantity One software (Bio-Rad), western blotting results were quantified from more than three separate experiments.

A549 = experiment: Modified MTT cytotoxicity assay, A549
Experimental: (§3) To further verify the anti-tumour activity, one human non-small cell lung cancer cell line (A549), one human ovarian cancer cell line (A2780), and one human normal heptical cell line (HHL-5) were screened by BAPs (4–30) using a modified MTT assay (Supporting Information). DOX and curcumin were selected as positive controls.
(§4) The optical density (OD) value of each well was measured on a
(§5) multi-well plate reader (TECAN, Mӓnnedorf, Switzerland ) at 570 nm.
(§6) Every IC 50 value was the average of three replicates.
(§7) Doxorubicin (DOX) and Curcumin were used as positive controls.

female ICR mice = experiment: Acute toxicity study, 14 days intragastric administration; format: in vivo; settings: for Liver tissue morphology, HE staining: intragastric
Experimental: Preliminary safety evaluation of BAP 16 […]
as §1
During the 14 days of intragastric administration, the food and water intakes of all three groups […]
eosinophilic changes, and edema (Figure S1).
Figure S1. The morphology of the liver tissues after the photo by HE staining. (A) In the control group, the hepatic lobular cells were normal without edema and degeneration. (B) In the 300 mg/kg […]
nucleus stained deeper. […] (C) […]
smaller and the color of nucleus became deeper. There were obvious eosinophilic changes and […]
(1 picture or pasted object on this page, not shown here)

[1] = Modified MTT cytotoxicity assay, normal heptical cell line HHL-5; settings: human, HHL-5 cells (normal hepatic cell line)
Experimental: as §3, §4, §5, §6, §7

HepG2 cells = experiment: Apoptosis assay, Annexin V-FITC/PI flow cytometry; format: cell-based, Human; settings: 1.0 μM, 24 h
Experimental: HepG2 cells were selected and plated at a density of approximately 2 × 10^5 cells/well in a 12-well plate. After treatment with BAP 16 (1.0, 2.0, and 4.0 μM) and DMSO for 24 h, cells were harvested, washed twice with pre-chilled PBS, and suspended in 1 × binding buffer at a concentration of 1 × 10^5 cells/mL. According to the manufacturer’s instruction, 100 μL of such medium was then mixed with 5 μL of Annexin V-FITC and 5 μL of propidium iodide (BD Biosciences, San Jose, CA, USA). The mixture was vortexed gently, then incubated in the dark at room temperature for 15 min. Apoptosis analysis was measured by flow cytometry (BD FACS Calibur).

p-p38 = experiment: Western blot, LPS-induced phosphorylation of p38 in RAW264.7 cells; format: cell-based, mouse; settings: RAW264.7, 1.0, 2.0, 4.0 μM, LPS 1.0 μg/mL 30 min
Excerpt: as §2

Bax = experiment: Western blot, Bax expression in HepG2 cells; format: cell-based, Human; settings: HepG2, 1.0, 2.0, 4.0 μM, 24 h
Excerpt: as §2

A2780 = experiment: Modified MTT cytotoxicity assay, A2780
Experimental: as §3, §4, §5, §6, §7

p-p65 = experiment: Western blot, LPS-stimulated phosphorylation of p65 in RAW264.7 cells; format: cell-based, mouse; settings: RAW264.7, 1.0, 2.0, 4.0 μM, LPS 1.0 μg/mL 30 min
Excerpt: as §2

[2] = mice, intragastric, 300, 600 mg/kg/d, 14 days

O=C1C(=Cc2cccc(C(F)(F)F)c2)CN(S(=O)(=O)c2ccc(C(F)(F)F)cc2)CC1=Cc1cccc(C(F)(F)F)c1 [BAP 16]
IC50 (in vitro; Cytotoxicity IC50 BEAS-2B): 17.6 ± 2.53 µM | IC50 (in vitro; Cytotoxicity IC50 HEK293): 7.19 ± 0.91 µM | IC50 (in vitro; Cytotoxicity IC50 HFL1): 9.62 ± 1.52 µM | Expression level of p-JNK (p-JNK): significantly decreased | IC50 (A549; Homo sapiens, A549, read-out: Cytotoxicity IC50 A549, MTT, non-small cell lung cancer cell line): 0.43 ± 0.08 µM | SI (selectivity index) A549 (A549; quotient of IC50 for normal (HHL-5) and malignant (A549) cells): 14.4 | Overall toxicity conclusion (female ICR mice; cell and acute toxicity studies together): low overall toxicity | Liver tissue morphology, HE staining (female ICR mice; mice, 300 mg/kg group, day 14): some liver cells became smaller | Liver tissue morphology, HE staining (female ICR mice; mice, 600 mg/kg group, day 14): the cytoplasm of mouse liver was dehydrated seriously | Body weight (female ICR mice; [2]): increased slightly | Food and water intakes (female ICR mice; [2]): normal | Toxic reaction observed during administration (female ICR mice; [2]): no obvious toxic reaction was observed | Liver tissue changes, HE staining (female ICR mice; mice, intragastric, 300, 600 mg/kg/d, day 14): dose-related toxic changes | IC50 [1]: 6.2 ± 0.4 µM | Apoptosis of HepG2 cells (HepG2 cells): 31.7% | Expression level of p-p38 (p-p38): significantly decreased | Expression of pro-apoptotic protein Bax (Bax): significantly increased | IC50 (A2780; Homo sapiens, A2780, read-out: Cytotoxicity IC50 A2780, MTT, ovarian cancer cell line): 0.27 ± 0.02 µM | SI (selectivity index) A2780 (A2780; quotient of IC50 for normal (HHL-5) and malignant (A2780) cells): 23.0 | Expression level of p-p65 (p-p65): significantly decreased in a dose-dependent manner
